The results in this text go back to patent publication US20240270762A1, “PENICILLIN-BINDING PROTEIN INHIBITORS” (priority 2021, published 2024).

The subject of one experiment is A. baumannii CDC-0033. Put plainly: microbe, parasite or virus in culture. Type of experiment: cell-based. The note with it: Acinetobacter baumannii, CDC0033, read-out: MIC, A. baumannii CDC-0033.
The target of experiment [1] is T1, PBP3 from Acinetobacter baumannii (ATCC 19606) (Acinetobacter baumannii, UniProt A0ABX6CK25).
T1 sequence (A0ABX6CK25 64-610): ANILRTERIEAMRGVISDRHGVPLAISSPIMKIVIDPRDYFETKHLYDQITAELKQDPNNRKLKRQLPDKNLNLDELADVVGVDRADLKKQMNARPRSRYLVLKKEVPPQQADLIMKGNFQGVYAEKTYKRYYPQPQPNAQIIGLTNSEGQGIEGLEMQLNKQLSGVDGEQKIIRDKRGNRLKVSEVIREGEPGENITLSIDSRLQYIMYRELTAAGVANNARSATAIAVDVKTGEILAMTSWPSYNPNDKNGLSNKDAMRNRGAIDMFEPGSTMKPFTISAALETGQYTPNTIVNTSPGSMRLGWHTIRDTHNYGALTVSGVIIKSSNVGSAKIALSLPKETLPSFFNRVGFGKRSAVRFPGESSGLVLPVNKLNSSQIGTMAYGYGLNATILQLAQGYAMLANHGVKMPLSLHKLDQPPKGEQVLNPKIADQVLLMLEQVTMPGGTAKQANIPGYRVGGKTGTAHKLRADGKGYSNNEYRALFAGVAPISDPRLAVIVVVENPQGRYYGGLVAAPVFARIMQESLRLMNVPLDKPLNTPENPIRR
Put plainly: Bocillin-FL fluorescence polarization competition binding, A. baumannii PBP3. The note with it: fluorescence polarization competition binding assay using Bocillin-FL; read-out: A. baumannii PBP3 Potency. The method, boiled down: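 Purified PBPs pre-incubated with inhibitor (E. coli PBP3 1.5 μM, 30 min; P. aeruginosa PBP3 0.75 μM, A. baumannii PBP1a 1 μM and PBP3 0.2 μM, 15 min), then Bocillin-FL 0.1 μM (0.05 μM for PBP1a) added; FP read up to 60 min. EC50 = concentration halving bound Bocillin-FL.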
(In general: In fluorescence polarisation assays a small probe gives low polarisation when free and higher when bound to something large.)

The next experiment has as its system A. baumannii 1258916. Put plainly: microbe, parasite or virus in culture. The format is cell-based, Acinetobacter baumannii. Conditions: Acinetobacter baumannii, 1258916, read-out: MIC, A. baumannii 1258916.
For another experiment, the system named is P. aeruginosa ATCC 35151. The experiment is described as follows: microbe, parasite or virus in culture. The format is cell-based. Conditions: Pseudomonas aeruginosa, ATCC35151, read-out: Minimum inhibitory concentration, P. aeruginosa ATCC 35151.
A further experiment has as its system P. aeruginosa CDC-0110. Put plainly: microbe, parasite or virus in culture. The format is cell-based. Conditions: Pseudomonas aeruginosa, CDC0110, read-out: Minimum inhibitory concentration, P. aeruginosa CDC-0110.
The next experiment deals with P. aeruginosa CDC-0090. The experiment is described as follows: microbe, parasite or virus in culture. Conditions: Pseudomonas aeruginosa, CDC0090, read-out: Minimum inhibitory concentration, P. aeruginosa CDC-0090. Type of experiment: cell-based.
The next experiment has as its system A. baumannii ATCC 17978. The experiment is described as follows: microbe, parasite or virus in culture. Conditions: Acinetobacter baumannii, ATCC17978, read-out: MIC, A. baumannii ATCC 17978. The format is cell-based.
Another experiment relates to A. baumannii ATCC 19606. The experiment is described as follows: microbe, parasite or virus in culture. Type of experiment: cell-based. Conditions: Acinetobacter baumannii, ATCC19606, read-out: MIC, A. baumannii ATCC 19606.
In another experiment the test system is P. aeruginosa ATCC 27853. The experiment is described as follows: microbe, parasite or virus in culture. The note with it: Pseudomonas aeruginosa, ATCC27853, read-out: Minimum inhibitory concentration, P. aeruginosa ATCC 27853. The format is cell-based.
Another experiment has as its system P. aeruginosa CDC-0095. The experiment is described as follows: microbe, parasite or virus in culture. Type of experiment: cell-based. The note with it: Pseudomonas aeruginosa, CDC0095, read-out: Minimum inhibitory concentration, P. aeruginosa CDC-0095.
For experiment [2], the system named is B. humptydooensis ATCC BAA-2767. The experiment is described as follows: microbe, parasite or virus in culture. Type of experiment: cell-based. Conditions: Burkholderia humptydooensis, ATCCBAA2767, read-out: Minimum inhibitory concentration (MIC), B. humptydooensis ATCC BAA-2767.

Structures are written as SMILES. Values after ≈ are worked out from the molar mass of the structure shown. A value given as a limit tells only on which side of the number the result lay.

As for `O=C(O)c1cccc2c1OB(O)[C@@H](NC(=O)C(NC(=O)N1CCN(Cc3cc(F)c(O)c(O)c3Cl)C(=O)C1=O)c1ccc(P(=O)(O)O)cc1)C2` (stereo partly drawn) [Example 164, (3R)-3-(2-(4-(2-chloro-5-fluoro-3,4-dihydroxybenzyl)-2,3-dioxopiperazine-1-carboxamido)-2-(4-phosphonophenyl)acetamido)-2-hydroxy-3,4-dihydro-2H-benzo[e][1,2]oxaborinine-8-carboxylic acid], the MIC with A. baumannii CDC-0033, in the experiment on A. baumannii 1258916, in the experiment with P. aeruginosa ATCC 35151, in the experiment with P. aeruginosa CDC-0110, in the experiment with P. aeruginosa CDC-0090 and in the experiment with A. baumannii ATCC 17978 was below 1 µg/mL throughout. Besides, the MIC (in the experiment on A. baumannii ATCC 19606; with P. aeruginosa ATCC 27853; in the experiment on P. aeruginosa CDC-0095; in experiment [2]) was below 1 µg/mL each time. In addition, the IC50 in experiment [1] was below 10 µM.

For the compound `O=C(O)c1c(F)ccc2c1OB(O)[C@@H](NC(=O)[C@H](NC(=O)N1CCN(Cc3ccc(O)c(O)c3Cl)C(=O)C1=O)c1ccc(P(=O)(O)O)c(F)c1F)C2` [Example 166, (R)-3-((R)-2-(4-(2-chloro-3,4-dihydroxybenzyl)-2,3-dioxopiperazine-1-carboxamido)-2-(2,3-difluoro-4-phosphonophenyl)acetamido)-7-fluoro-2-hydroxy-3,4-dihydro-2H-benzo[e][1,2]oxaborinine-8-carboxylic acid], the MIC with A. baumannii CDC-0033 is below 1 µg/mL; in the experiment with A. baumannii 1258916 it was below 1 µg/mL; in the experiment on P. aeruginosa ATCC 35151 it was below 1 µg/mL; in the experiment on P. aeruginosa CDC-0110, below 1 µg/mL; in the experiment with P. aeruginosa CDC-0090 it was 2 to 4 µg/mL (≈ 2.59 to 5.19 µM); in the experiment with A. baumannii ATCC 17978, below 1 µg/mL. Also, the MIC (in the experiment on A. baumannii ATCC 19606; with P. aeruginosa ATCC 27853; in the experiment on P. aeruginosa CDC-0095; in experiment [2]) was below 1 µg/mL throughout. Besides, the IC50 in experiment [1] is below 10 µM.

For `O=C(NCCS(=O)(=O)N1CCN(C(=O)N[C@H](C(=O)N[C@H]2Cc3ccc(F)c(C(=O)O)c3OB2O)c2ccc(P(=O)(O)O)cc2)C1=O)c1ccc(O)c(O)c1Cl` [Example 167, (R)-3-((S)-2-(3-((2-(2-chloro-3,4-dihydroxybenzamido)ethyl)sulfonyl)-2-oxoimidazolidine-1-carboxamido)-2-(4-phosphonophenyl)acetamido)-7-fluoro-2-hydroxy-3,4-dihydro-2H-benzo[e][1,2]oxaborinine-8-carboxylic acid], the MIC was above 128 µg/mL in the experiment on A. baumannii CDC-0033; above 128 µg/mL in the experiment on A. baumannii 1258916; 32 to 64 µg/mL (≈ 38.7 to 77.3 µM) in the experiment with P. aeruginosa ATCC 35151; above 128 µg/mL in the experiment on P. aeruginosa CDC-0110; above 128 µg/mL with P. aeruginosa CDC-0090; 32 to 64 µg/mL (≈ 38.7 to 77.3 µM) in the experiment with A. baumannii ATCC 17978. Moreover, the MIC (with A. baumannii ATCC 19606; in the experiment with P. aeruginosa ATCC 27853; with P. aeruginosa CDC-0095; in experiment [2]) was above 128 µg/mL throughout. Further, the IC50 in experiment [1] lay in the range of 10 to 50 µM.

For `O=C(O)c1c(F)ccc2c1OB(O)[C@@H](NC(=O)[C@H](NC(=O)N1CCN(C3CCN(C(=O)c4ccc(F)c(O)c4Cl)CC3)C1=O)c1cc(F)c(O)c(O)c1Cl)C2` [Example 438, (R)-3-((R)-2-(3-(1-(2-chloro-4-fluoro-3-hydroxybenzoyl)piperidin-4-yl)-2-oxoimidazolidine-1-carboxamido)-2-(2-chloro-5-fluoro-3,4-dihydroxyphenyl)acetamido)-7-fluoro-2-hydroxy-3,4-dihydro-2H-benzo[e][1,2]oxaborinine-8-carboxylic acid], the MIC in the experiment with A. baumannii CDC-0033 was below 1 µg/mL; in the experiment with A. baumannii 1258916, below 1 µg/mL; in the experiment on P. aeruginosa ATCC 35151, below 1 µg/mL; in the experiment with P. aeruginosa CDC-0110 it was below 1 µg/mL; with P. aeruginosa CDC-0090 it was 2 to 4 µg/mL (≈ 2.47 to 4.94 µM); in the experiment on A. baumannii ATCC 17978 it was below 1 µg/mL. The MIC (in the experiment with A. baumannii ATCC 19606; in the experiment on P. aeruginosa ATCC 27853; in the experiment on P. aeruginosa CDC-0095; in [2]) was below 1 µg/mL each time. Moreover, the IC50 in experiment [1] was below 10 µM.

As for `O=C(O)c1c(F)ccc2c1OB(O)[C@@H](NC(=O)[C@H](NC(=O)N1CCN(C3CCN(C(=O)Nc4cccc(O)c4)CC3)C1=O)c1cc(F)c(O)c(O)c1Cl)C2` [Example 445, (R)-3-((R)-2-(2-chloro-5-fluoro-3,4-dihydroxyphenyl)-2-(3-(1-((3-hydroxyphenyl)carbamoyl)piperidin-4-yl)-2-oxoimidazolidine-1-carboxamido)acetamido)-7-fluoro-2-hydroxy-3,4-dihydro-2H-benzo[e][1,2]oxaborinine-8-carboxylic acid], the MIC was 2 to 4 µg/mL (≈ 2.59 to 5.18 µM) in the experiment on A. baumannii CDC-0033; below 1 µg/mL in the experiment on A. baumannii 1258916; below 1 µg/mL with P. aeruginosa ATCC 35151; below 1 µg/mL with P. aeruginosa CDC-0110; below 1 µg/mL in the experiment on P. aeruginosa CDC-0090; below 1 µg/mL in the experiment on A. baumannii ATCC 17978. Further, the MIC (with A. baumannii ATCC 19606; with P. aeruginosa ATCC 27853; in the experiment with P. aeruginosa CDC-0095; in experiment [2]) was below 1 µg/mL throughout. For the same compound, the IC50 in experiment [1] is below 10 µM.

As to `O=C(O)c1c(F)ccc2c1OB(O)[C@@H](NC(=O)[C@H](NC(=O)N1CCN(C3CCN(C(=O)Nc4cccc(O)c4Cl)CC3)C1=O)c1cc(F)c(O)c(O)c1Cl)C2` [Example 447, (R)-3-((R)-2-(3-(1-((2-chloro-3-hydroxyphenyl)carbamoyl)piperidin-4-yl)-2-oxoimidazolidine-1-carboxamido)-2-(2-chloro-5-fluoro-3,4-dihydroxyphenyl)acetamido)-7-fluoro-2-hydroxy-3,4-dihydro-2H-benzo[e][1,2]oxaborinine-8-carboxylic acid], the MIC with A. baumannii CDC-0033, in the experiment on A. baumannii 1258916, with P. aeruginosa ATCC 35151, in the experiment with P. aeruginosa CDC-0110, with P. aeruginosa CDC-0090 and in the experiment on A. baumannii ATCC 17978 was below 1 µg/mL throughout. Further, the MIC (in the experiment on A. baumannii ATCC 19606; with P. aeruginosa ATCC 27853; in the experiment with P. aeruginosa CDC-0095; in experiment [2]) was below 1 µg/mL each time. The IC50 in [1] was below 10 µM.

Take `O=C(O)c1c(F)ccc2c1OB(O)[C@@H](NC(=O)[C@H](NC(=O)N1CCN(C3CCN(C(=O)Nc4cc(O)cc(O)c4)CC3)C1=O)c1cc(F)c(O)c(O)c1Cl)C2` [Example 456, (R)-3-((R)-2-(2-chloro-5-fluoro-3,4-dihydroxyphenyl)-2-(3-(1-((3,5-dihydroxyphenyl)carbamoyl)piperidin-4-yl)-2-oxoimidazolidine-1-carboxamido)acetamido)-7-fluoro-2-hydroxy-3,4-dihydro-2H-benzo[e][1,2]oxaborinine-8-carboxylic acid]: the MIC in the experiment with A. baumannii CDC-0033, with A. baumannii 1258916, in the experiment with P. aeruginosa ATCC 35151, with P. aeruginosa CDC-0110, in the experiment on P. aeruginosa CDC-0090 and in the experiment with A. baumannii ATCC 17978 was below 1 µg/mL in each case. Besides, the MIC (in the experiment with A. baumannii ATCC 19606; in the experiment with P. aeruginosa ATCC 27853; with P. aeruginosa CDC-0095; in experiment [2]) was below 1 µg/mL each time. Besides, the IC50 in [1] is below 10 µM.

In the case of `O=C(O)c1c(F)ccc2c1OB(O)[C@@H](NC(=O)[C@H](NC(=O)N1CCN(C3CCN(C(=O)c4cccnc4)CC3)C1=O)c1cc(F)c(O)c(O)c1Cl)C2` [Example 460, (R)-3-((R)-2-(2-chloro-5-fluoro-3,4-dihydroxyphenyl)-2-(3-(1-nicotinoylpiperidin-4-yl)-2-oxoimidazolidine-1-carboxamido)acetamido)-7-fluoro-2-hydroxy-3,4-dihydro-2H-benzo[e][1,2]oxaborinine-8-carboxylic acid], the MIC in the experiment with A. baumannii CDC-0033, in the experiment with A. baumannii 1258916, in the experiment on P. aeruginosa ATCC 35151, in the experiment with P. aeruginosa CDC-0110, in the experiment with P. aeruginosa CDC-0090 and in the experiment with A. baumannii ATCC 17978 was below 1 µg/mL each time. Also, the MIC (in the experiment with A. baumannii ATCC 19606; in the experiment with P. aeruginosa ATCC 27853; in the experiment with P. aeruginosa CDC-0095; in experiment [2]) was below 1 µg/mL in each case. The IC50 in [1] is below 10 µM.
